Results: ChEMBL document CHEMBL3621090, “Discovery of a novel Kv7 channel opener as a treatment for epilepsy” (Bioorg Med Chem Lett, 2015)

Legend:
Rattus norvegicus [1] = experiment: Anticonvulsant activity in Sprague-Dawley rat assessed as protection against maximal electroshock-induced convulsion at 10 mg/kg, po administered 60 mins prior to application of shock via corneal electrodes relative to control; format: functional
Brain [2] = experiment: Fraction unbound in Sprague-Dawley rat brain at 1 mg/kg, sc administered at 30 mins by LC-MS/MS analysis; format: ADME, organism-based; settings: in vivo, 0.5 h
[3] = Fraction unbound in rat plasma by equilibrium dialysis method; format: ADME, cell-free
Brain [4] = experiment: Fraction unbound in Sprague-Dawley rat brain at 3 mg/kg, po administered at 60 mins by LC-MS/MS analysis; format: ADME, organism-based; settings: in vivo, 1 h
[5] = Ratio of free drug level in plasma to brain in Sprague-Dawley rat at 30 mg/kg, po administration at 60 mins; format: ADME, organism-based; settings: in vivo, 1 h
Plasma [6] = experiment: Unbound plasma concentration in Sprague-Dawley rat at 10 mg/kg, sc administered at 30 mins by LC-MS/MS analysis; format: ADME, organism-based; settings: in vivo, 0.5 h
Brain [7] = experiment: Fraction unbound in Sprague-Dawley rat brain at 30 mg/kg, sc administered at 30 mins by LC-MS/MS analysis; format: ADME, organism-based; settings: in vivo, 0.5 h
Plasma [8] = experiment: Unbound plasma concentration in Sprague-Dawley rat at 10 mg/kg, po administered at 60 mins by LC-MS/MS analysis; format: ADME, organism-based; settings: in vivo, 1 h
[9] = biological target: T1, Potassium voltage-gated channel subfamily KQT member 4 (Rattus norvegicus, UniProt Q9JK96); experiment: Activation of rat Kv7.4 expressed in CHOK1 cells; format: cell-based, CHO-K1
T1 sequence (Q9JK96 whole entry): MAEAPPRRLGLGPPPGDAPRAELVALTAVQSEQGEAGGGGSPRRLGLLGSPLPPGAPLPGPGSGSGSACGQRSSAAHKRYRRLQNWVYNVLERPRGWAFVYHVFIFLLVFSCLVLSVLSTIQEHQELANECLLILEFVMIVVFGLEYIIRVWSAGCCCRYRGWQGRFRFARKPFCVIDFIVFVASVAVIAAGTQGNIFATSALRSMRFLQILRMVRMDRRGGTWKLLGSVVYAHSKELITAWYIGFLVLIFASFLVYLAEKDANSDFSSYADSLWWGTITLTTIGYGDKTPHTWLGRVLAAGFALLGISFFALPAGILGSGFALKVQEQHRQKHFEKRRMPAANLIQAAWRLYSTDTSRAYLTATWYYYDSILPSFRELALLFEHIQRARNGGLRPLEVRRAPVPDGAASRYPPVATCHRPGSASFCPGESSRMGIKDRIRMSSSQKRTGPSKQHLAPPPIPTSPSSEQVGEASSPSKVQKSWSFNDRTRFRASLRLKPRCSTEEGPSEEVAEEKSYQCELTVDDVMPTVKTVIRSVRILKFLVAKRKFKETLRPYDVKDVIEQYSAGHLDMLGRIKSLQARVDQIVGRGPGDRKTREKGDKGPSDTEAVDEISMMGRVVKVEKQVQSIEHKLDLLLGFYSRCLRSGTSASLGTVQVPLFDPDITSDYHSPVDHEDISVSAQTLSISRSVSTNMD

[10] = Intrinsic clearance in human liver microsomes measured over 1 hr in presence of NADPH regenerating system; format: ADME; settings: read-out: CLH
[11] = Ratio of free drug level in plasma to brain in Sprague-Dawley rat at 10 mg/kg, sc administration at 30 mins; format: ADME, organism-based; settings: in vivo, 0.5 h
CHO-K1 = experiment: Activation of rat Kv7.3/7.5 expressed in CHOK1 cells assessed as increase in current amplitude relative to control; format: cell-based
Brain [12] = experiment: Fraction unbound in Sprague-Dawley rat brain at 10 mg/kg, po administered at 60 mins by LC-MS/MS analysis; format: ADME, organism-based; settings: in vivo, 1 h
[13] = biological target: T2, Potassium voltage-gated channel subfamily KQT member 4 (Homo sapiens, UniProt P56696); experiment: Activation of human Kv7.4 expressed in CHOK1 cells; format: cell-based, CHO-K1
T2 sequence (P56696 whole entry): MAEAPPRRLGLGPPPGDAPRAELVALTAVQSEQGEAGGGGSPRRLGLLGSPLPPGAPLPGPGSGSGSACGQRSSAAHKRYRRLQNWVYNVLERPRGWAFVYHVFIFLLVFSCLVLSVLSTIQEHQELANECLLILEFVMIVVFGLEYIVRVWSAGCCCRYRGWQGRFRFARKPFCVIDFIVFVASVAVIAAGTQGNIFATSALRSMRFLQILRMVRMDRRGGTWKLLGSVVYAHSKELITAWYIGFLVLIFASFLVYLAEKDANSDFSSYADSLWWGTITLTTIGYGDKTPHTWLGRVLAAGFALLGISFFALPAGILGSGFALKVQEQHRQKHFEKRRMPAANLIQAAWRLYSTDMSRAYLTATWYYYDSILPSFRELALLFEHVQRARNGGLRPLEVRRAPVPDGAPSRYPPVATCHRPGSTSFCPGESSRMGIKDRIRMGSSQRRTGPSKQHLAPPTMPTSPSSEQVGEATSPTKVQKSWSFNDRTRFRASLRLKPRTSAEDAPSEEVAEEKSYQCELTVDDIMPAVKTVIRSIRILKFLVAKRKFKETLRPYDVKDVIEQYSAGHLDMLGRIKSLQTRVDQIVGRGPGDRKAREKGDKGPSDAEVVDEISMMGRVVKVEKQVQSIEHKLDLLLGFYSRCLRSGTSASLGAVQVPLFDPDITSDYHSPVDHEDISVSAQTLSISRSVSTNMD

Rattus norvegicus [14] = experiment: Anticonvulsant activity in Sprague-Dawley rat assessed as protection against maximal electroshock-induced convulsion at 30 mg/kg, po administered 60 mins prior to application of shock via corneal electrodes relative to control; format: functional
[15] = biological target: Voltage-gated potassium channel, KQT; KCNQ2(Kv7.2)/KCNQ3(Kv7.3) (Homo sapiens) (UniProt O43526+O43525); experiment: (§1) Activation of human Kv7.2/7.3 expressed in CHOK1 cells; format: cell-based; settings: CHO-K1
[16] = biological target: Voltage-gated potassium channel, KQT; KCNQ2(Kv7.2)/KCNQ3(Kv7.3) (Homo sapiens, UniProt O43525+O43526); experiment: as §1; format: cell-based, CHO-K1
Chain of Voltage-gated potassium channel, KQT; KCNQ2(Kv7.2)/KCNQ3(Kv7.3) (O43526 whole entry): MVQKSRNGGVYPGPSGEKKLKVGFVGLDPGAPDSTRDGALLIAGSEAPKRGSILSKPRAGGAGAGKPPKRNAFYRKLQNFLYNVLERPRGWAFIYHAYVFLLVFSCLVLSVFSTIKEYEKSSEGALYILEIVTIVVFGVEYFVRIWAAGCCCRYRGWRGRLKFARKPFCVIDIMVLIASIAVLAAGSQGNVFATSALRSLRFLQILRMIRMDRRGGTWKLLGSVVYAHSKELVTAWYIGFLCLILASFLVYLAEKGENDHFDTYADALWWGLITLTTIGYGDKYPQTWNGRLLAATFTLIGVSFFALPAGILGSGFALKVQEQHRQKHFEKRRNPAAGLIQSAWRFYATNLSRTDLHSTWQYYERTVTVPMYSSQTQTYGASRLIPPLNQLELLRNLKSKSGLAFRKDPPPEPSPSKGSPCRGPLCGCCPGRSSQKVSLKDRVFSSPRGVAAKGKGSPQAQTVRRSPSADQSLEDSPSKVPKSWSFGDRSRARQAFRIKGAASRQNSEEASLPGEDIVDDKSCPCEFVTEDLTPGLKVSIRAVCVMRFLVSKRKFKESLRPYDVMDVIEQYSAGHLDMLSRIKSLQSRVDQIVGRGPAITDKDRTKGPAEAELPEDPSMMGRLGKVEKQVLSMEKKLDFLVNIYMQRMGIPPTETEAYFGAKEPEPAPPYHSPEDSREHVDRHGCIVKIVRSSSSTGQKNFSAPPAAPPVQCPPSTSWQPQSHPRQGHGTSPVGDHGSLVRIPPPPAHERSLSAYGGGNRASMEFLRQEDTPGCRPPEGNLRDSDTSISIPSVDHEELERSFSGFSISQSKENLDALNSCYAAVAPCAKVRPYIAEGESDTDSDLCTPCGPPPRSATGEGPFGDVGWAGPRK
Chain of Voltage-gated potassium channel, KQT; KCNQ2(Kv7.2)/KCNQ3(Kv7.3) (O43525 whole entry): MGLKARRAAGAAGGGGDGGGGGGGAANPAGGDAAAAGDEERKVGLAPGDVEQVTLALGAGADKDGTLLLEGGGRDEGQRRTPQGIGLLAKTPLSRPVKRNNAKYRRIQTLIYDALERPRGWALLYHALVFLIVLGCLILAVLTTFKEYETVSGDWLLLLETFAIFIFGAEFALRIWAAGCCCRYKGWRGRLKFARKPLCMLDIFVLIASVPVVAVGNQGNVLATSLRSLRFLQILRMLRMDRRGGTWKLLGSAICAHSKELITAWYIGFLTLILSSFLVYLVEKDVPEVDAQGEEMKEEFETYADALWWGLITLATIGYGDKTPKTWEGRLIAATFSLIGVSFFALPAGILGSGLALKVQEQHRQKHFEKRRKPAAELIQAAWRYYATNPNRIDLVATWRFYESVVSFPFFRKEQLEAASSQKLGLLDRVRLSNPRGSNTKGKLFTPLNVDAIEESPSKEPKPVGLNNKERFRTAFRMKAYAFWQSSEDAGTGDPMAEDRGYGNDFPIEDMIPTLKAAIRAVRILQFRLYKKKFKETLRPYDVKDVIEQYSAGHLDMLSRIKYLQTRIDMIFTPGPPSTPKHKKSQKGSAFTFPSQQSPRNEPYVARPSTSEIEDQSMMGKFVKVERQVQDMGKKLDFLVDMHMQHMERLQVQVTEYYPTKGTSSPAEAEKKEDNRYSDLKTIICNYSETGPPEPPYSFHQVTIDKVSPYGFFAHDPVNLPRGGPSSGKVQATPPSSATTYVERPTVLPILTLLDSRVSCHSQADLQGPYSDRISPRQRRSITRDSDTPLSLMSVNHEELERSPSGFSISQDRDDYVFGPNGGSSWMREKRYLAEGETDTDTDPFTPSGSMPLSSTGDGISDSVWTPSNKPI

[17] = biological target: Voltage-gated potassium channel KCNQ3/KCNQ5 (Homo sapiens, UniProt O43525+Q9NR82); experiment: Activation of human Kv7.3/7.5 expressed in CHOK1 cells; format: cell-based, CHO-K1
Chain of Voltage-gated potassium channel KCNQ3/KCNQ5 (O43525 whole entry): as above
Chain of Voltage-gated potassium channel KCNQ3/KCNQ5 (Q9NR82 whole entry): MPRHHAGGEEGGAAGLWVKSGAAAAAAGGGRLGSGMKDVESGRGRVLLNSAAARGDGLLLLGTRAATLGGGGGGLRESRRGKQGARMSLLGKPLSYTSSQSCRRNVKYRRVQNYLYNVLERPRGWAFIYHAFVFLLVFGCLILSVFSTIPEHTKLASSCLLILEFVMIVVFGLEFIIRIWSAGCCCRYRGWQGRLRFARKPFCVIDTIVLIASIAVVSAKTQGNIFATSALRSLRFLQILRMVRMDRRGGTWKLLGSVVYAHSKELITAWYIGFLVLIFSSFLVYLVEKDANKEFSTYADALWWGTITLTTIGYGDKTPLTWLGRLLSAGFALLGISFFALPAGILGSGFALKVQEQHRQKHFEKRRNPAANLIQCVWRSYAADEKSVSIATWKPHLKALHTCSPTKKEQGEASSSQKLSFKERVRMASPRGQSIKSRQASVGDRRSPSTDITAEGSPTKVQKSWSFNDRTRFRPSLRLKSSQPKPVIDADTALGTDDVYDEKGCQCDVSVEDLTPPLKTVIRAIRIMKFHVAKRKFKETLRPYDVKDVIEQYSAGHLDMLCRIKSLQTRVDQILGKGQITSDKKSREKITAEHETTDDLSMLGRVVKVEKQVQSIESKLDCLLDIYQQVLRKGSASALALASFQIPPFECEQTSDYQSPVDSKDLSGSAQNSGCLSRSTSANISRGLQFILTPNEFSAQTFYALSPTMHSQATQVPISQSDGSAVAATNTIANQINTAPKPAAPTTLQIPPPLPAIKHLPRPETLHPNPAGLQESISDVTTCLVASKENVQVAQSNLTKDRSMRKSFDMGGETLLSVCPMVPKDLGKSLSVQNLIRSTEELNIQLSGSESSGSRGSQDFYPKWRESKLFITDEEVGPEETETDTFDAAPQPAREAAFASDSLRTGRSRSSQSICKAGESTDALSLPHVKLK

[18] = Ratio of free drug level in plasma to brain in Sprague-Dawley rat at 10 mg/kg, po administration at 60 mins; format: ADME, organism-based; settings: in vivo, 1 h
[19] = Ratio of free drug level in plasma to brain in Sprague-Dawley rat at 3 mg/kg, po administration at 60 mins; format: ADME, organism-based; settings: in vivo, 1 h
[20] = Toxicity in human THLE cells assessed as ATP depletion; format: cell-based
Rattus norvegicus [21] = experiment: Anticonvulsant activity in Sprague-Dawley rat assessed as protection against maximal electroshock-induced convulsion at 1 mg/kg, sc administered 30 mins prior to application of shock via corneal electrodes relative to control; format: functional
Rattus norvegicus [22] = experiment: Anticonvulsant activity in po dosed Sprague-Dawley rat assessed as protection against maximal electroshock-induced convulsion administered 60 mins prior to application of shock via corneal electrodes; format: functional, organism-based
Brain [23] = experiment: Fraction unbound in Sprague-Dawley rat brain at 3 mg/kg, sc administered at 30 mins by LC-MS/MS analysis; format: ADME, organism-based; settings: in vivo, 0.5 h
[24] = Ratio of free drug level in plasma to brain in Sprague-Dawley rat at 1 mg/kg, po administration at 60 mins; format: ADME, organism-based; settings: in vivo, 1 h

Drug uptake(free) (Brain [2]): 33 nM | fraction unbound [3]: 0.184 | Drug uptake(free) (Brain [4]): 43 nM | Ratio [5]: 0.48 | Cp(f) (Plasma [6]): 211 nM | Drug uptake(free) (Brain [7]): 167 nM | Cp(f) (Plasma [8]): 225 nM | EC50 [9]: 376 nM | CLint scaled [10]: 15.6 mL/min/kg | Ratio [11]: 0.59 | Drug uptake(free) (Brain [12]): 83 nM | EC50 [13]: 625 nM | max activation [15]: 147% | EC50 [16]: 334 nM | EC50 [17]: 588 nM | Ratio [18]: 0.37 | Ratio [19]: 0.39 | Drug uptake(free) (Brain [23]): 90 nM | Ratio [24]: 0.42
Structure (SMILES): COc1nc(N2CCC(OC)CC2)nc(OC)c1NC(=O)CC(C)(C)C
Activity (Rattus norvegicus [1]): 100% | Activity (CHO-K1): 207% | Activity (Rattus norvegicus [14]): 100% | IC50 [20]: > 300000 nM | Activity (Rattus norvegicus [21]): 43% | Activity (Rattus norvegicus [22]): Dose-dependent effect
